In patent US20260001914A1, “MACROCYCLIC PEPTIDES TARGETING KRAS” (Merck Sharp & Dohme LLC, priority 2022, published 2026):
*1 amine or outer side, *2 acyl side, *3 side chain or, on linkers, in order; H or OH if unused. Where a SMILES comes first, the peptide text is derived from it. Bridges are numbered along the chain shown (N, C = ends). [ ]: non-standard residue; d: D form. The star is where a group is joined. NMeNva(5-imidazol-1-yl) = CN[C@@H](CCCn1ccnc1)C(=O)O; Phe(4-guanidino) = N=C(N)Nc1ccc(C[C@H](N)C(=O)O)cc1; Ala(pyrimidin-5-yl) = N[C@@H](Cc1cncnc1)C(=O)O; Phe(3-COOH) = N[C@@H](Cc1cccc(C(=O)O)c1)C(=O)O; X6 = O=C([C@H](Cc1cnn(C2COC2)c1)N[*:1])[*:2]; NMePhe(3-Me) = CN[C@@H](Cc1cccc(C)c1)C(=O)O; NMeAha = CN[C@@H](CCN=[N+]=[N-])C(=O)O; Nle(5,5-F2) = CC(F)(F)CC[C@H](N)C(=O)O; Phe(4-F) = N[C@@H](Cc1ccc(F)cc1)C(=O)O; 1Nal = N[C@@H](Cc1cccc2ccccc12)C(=O)O; NHCH2CH2SCH2CO = O=C(CSCCN[*:1])[*:2]; X21 = O=C([C@@H]1C[C@H]1CN[*:1])[*:2]; Ala(cPent) = N[C@@H](CC1CCCC1)C(=O)O; Phe(2-F) = N[C@@H](Cc1ccccc1F)C(=O)O; X31 = O=C([C@H](CCC1CC1)N[*:1])[*:2]; NMe3Pal = CN[C@@H](Cc1cccnc1)C(=O)O; X1 = O=C(C12CC(CN[*:1])(C1)C2)[*:2]; X41 = COCCC[C@H](N[*:1])C(=O)[*:2]; NMeOrn(Me) = CNCCC[C@H](NC)C(=O)O; Ala(cPr) = N[C@@H](CC1CC1)C(=O)O; NMeF = CN[C@@H](Cc1ccccc1)C(=O)O; PhLac = O=C(O)[C@@H](O)Cc1ccccc1; 3Pal = N[C@@H](Cc1cccnc1)C(=O)O; 4Pal = N[C@@H](Cc1ccncc1)C(=O)O; Ahp(2) = CCCCC[C@H](N)C(=O)O; Cba = N[C@@H](CC1CCC1)C(=O)O; hLeu = CC(C)CC[C@H](N)C(=O)O; hSer = N[C@@H](CCO)C(=O)O; αMeC = C[C@](N)(CS)C(=O)O; NMeA = CN[C@@H](C)C(=O)O; Nle = CCCC[C@H](N)C(=O)O; CHF2 = FC(F)*

molecular target: KRAS-G12D protein (Homo sapiens, UniProt P01116, G12D); assay: SOS-mediated nucleotide exchange assay (BODIPY-GDP / Tb-streptavidin TR-FRET); type: biochemical
Sequence (P01116 1-188 isoform P01116-2 G12D): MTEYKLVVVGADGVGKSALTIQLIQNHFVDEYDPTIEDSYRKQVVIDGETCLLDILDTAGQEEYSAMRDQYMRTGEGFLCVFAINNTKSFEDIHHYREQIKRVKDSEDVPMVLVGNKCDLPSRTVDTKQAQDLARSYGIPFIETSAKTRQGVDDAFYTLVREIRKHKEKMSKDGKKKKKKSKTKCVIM

Compound | EC50
CCCC[C@@H]1NC(=O)[C@H](Cc2ccc(O)cc2)NC(=O)[C@H](CCOC)NC(=O)[C@H](Cc2ccc(O)cc2)NC(=O)[C@H](CCCNC(=N)N)NC(=O)[C@H](Cc2ccccc2)NC(=O)CSCCNC(=O)[C@H](Cc2ccccc2)N(C)C1=O [compound 77, cyclo(F-R-Y-hSOMe-Y-Nle-NMeF-Cysteamine-ClAc)] (cyclo(FRY[hSer](Me)Y[Nle][NMeF][NHCH2CH2SCH2CO])) | 2850 nM
CCCCC[C@@H]1NC(=O)[C@H](Cc2ccc(OC)cc2)NC(=O)[C@H](CC2CCCC2)NC(=O)[C@H](Cc2ccc(NC(=N)N)cc2)NC(=O)[C@H](CCCNC(=N)N)NC(=O)[C@H](Cc2ccccc2)NC(=O)CSC[C@@](C)(C(N)=O)NC(=O)[C@H](Cc2ccccc2)N(C)C1=O [compound 366, cyclo(F-R-Phe4Gn-cPeA-TyrOMe-Ahp-NMeF-aMeCl-ClAc)] ({CH2CO}-FR[Phe(4-guanidino)][Ala(cPent)]Y(Me)[Ahp(2)][NMeF][αMeC]-NH2; thioether N-8) | 4.01 nM
CCCC[C@@H]1NC(=O)[C@H](Cc2cnn(C3COC3)c2)NC(=O)[C@H](C)N(C)C(=O)[C@H](Cc2ccccc2)OC(=O)C23CC(CNC(=O)[C@H](Cc4ccccc4)N(C)C(=O)[C@H](CCCC)NC(=O)[C@H](Cc4ccccc4F)NC1=O)(C2)C3 [compound 317, cyclo(FLac-NMeA-AlaPyz1Ox-Nle-Phe2F-Nle-NMeF-amBCP)] (cyclo([NMeA][X6][Nle][Phe(2-F)][Nle][NMeF][X1][PhLac])) | 22.7 nM
CCCCC[C@@H]1NC(=O)[C@H](Cc2ccc(OC)cc2)NC(=O)[C@H](CC2CCC2)NC(=O)[C@H](Cc2cnn(C)c2)NC(=O)[C@H](CCCNC(=N)N)NC(=O)[C@H](Cc2ccccc2)NC(=O)CSC[C@@](C)(C(N)=O)NC(=O)[C@H](Cc2ccccc2)N(C)C1=O [compound 372, cyclo(F-R-Ala4PyzlMe-cBuA-TyrOMe-Ahp-NMeF-aMeCl-ClAc)] | 10.2 nM
CCCC[C@@H]1NC(=O)[C@H](Cc2cncnc2)NC(=O)[C@H](CCN=[N+]=[N-])N(C)C(=O)[C@H](Cc2ccccc2)OC(=O)C23CC(CNC(=O)[C@H](Cc4cccnc4)N(C)C(=O)[C@H](CCCC)NC(=O)[C@H](Cc4ccccc4F)NC1=O)(C2)C3 [compound 242, cyclo(FLac-NMeDabN3-PyrimAla-Nle-Phe2F-Nle-NMe3Pal-amBCP)] (cyclo([NMe3Pal][X1][PhLac][NMeAha][Ala(pyrimidin-5-yl)][Nle][Phe(2-F)][Nle])) | 80.9 nM
Cc1cccc(C[C@H]2C(=O)NCC34CC(C3)(C4)C(=O)O[C@@H](Cc3ccccc3)C(=O)N(C)[C@@H](C)C(=O)N[C@@H](Cc3cncnc3)C(=O)N[C@@H](CC3CC3)C(=O)N[C@@H](Cc3ccccc3F)C(=O)N[C@@H](CCC3CC3)C(=O)N2C)c1 [compound 334, cyclo(FLac-NMeA-PyrimAla-cPrA-Phe2F-hcPrA-NMePhe3Me-amBCP)] (cyclo([Ala(cPr)][Phe(2-F)][X31][NMePhe(3-Me)][X1][PhLac][NMeA][Ala(pyrimidin-5-yl)])) | 2 nM
CCCC[C@@H]1NC(=O)[C@H](Cc2cccnc2)NC(=O)[C@H](CCCn2ccnc2)N(C)C(=O)[C@H](Cc2ccccc2)N(C)C(=O)[C@@H]2C[C@H]2CNC(=O)[C@H](Cc2cccnc2)N(C)C(=O)[C@H](CCCC)NC(=O)[C@H](Cc2ccccc2F)NC1=O [compound 256, cyclo(NMeF-NMeNvaImid-3Pal-Nle-Phe2F-Nle-NMe3Pal-tamcPr)] (cyclo([3Pal][Nle][Phe(2-F)][Nle][NMe3Pal][X21][NMeF][NMeNva(5-imidazol-1-yl)])) | 7650 nM
CCCC[C@@H]1NC(=O)[C@H](Cc2ccncc2)NC(=O)[C@H](CCCNC(=N)N)NC(=O)[C@H](Cc2ccc(F)cc2)NC(=O)CSCCNC(=O)[C@H](Cc2ccccc2)N(C)C(=O)[C@H](CCCC)NC(=O)[C@H](Cc2ccc(OC)cc2)NC1=O [compound 90, cyclo(Phe4F-R-4Pal-Nle-TyrOMe-Nle-NMeF-Cysteamine-ClAc)] (cyclo([4Pal][Nle]Y(Me)[Nle][NMeF][NHCH2CH2SCH2CO][Phe(4-F)]R)) | 432 nM
CCCC[C@@H]1NC(=O)[C@H](Cc2ccccc2F)NC(=O)[C@H](CCC(C)C)NC(=O)[C@H](Cc2cncnc2)NC(=O)[C@H](C)N(C)C(=O)[C@H](Cc2ccccc2)OC(=O)C23CC(CNC(=O)[C@H](Cc4cccnc4)N(C)C1=O)(C2)C3 [compound 127, cyclo(FLac-NMeA-PyrimAla-hL-Phe2F-Nle-NMe3Pal-amBCP)] (cyclo([NMe3Pal][X1][PhLac][NMeA][Ala(pyrimidin-5-yl)][hLeu][Phe(2-F)][Nle])) | 228 nM
CCCC[C@@H]1NC(=O)[C@H](Cc2cccnc2)NC(=O)[C@H](C)N(C)C(=O)[C@H](Cc2ccccc2)NC(=O)C23CC(CNC(=O)[C@H](Cc4cccnc4)N(C)C(=O)[C@H](CCCC)NC(=O)[C@H](Cc4ccccc4F)NC1=O)(C2)C3 [compound 162, cyclo(F-NMeA-3Pal-Nle-Phe2F-Nle-NMe3Pal-amBCP)] (cyclo(F[NMeA][3Pal][Nle][Phe(2-F)][Nle][NMe3Pal][X1])) | 313 nM
CC(C)CC[C@@H]1NC(=O)[C@H](Cc2ccccc2F)NC(=O)[C@H](CC2CC2)NC(=O)[C@H](Cc2cnn(C3COC3)c2)NC(=O)[C@H](C)N(C)C(=O)[C@H](Cc2ccccc2)OC(=O)C23CC(CNC(=O)[C@H](Cc4cccnc4)N(C)C1=O)(C2)C3 [compound 301, cyclo(FLac-NMeA-AlaPyz1Ox-cPrA-Phe2F-hL-NMe3Pal-amBCP)] (cyclo([Ala(cPr)][Phe(2-F)][hLeu][NMe3Pal][X1][PhLac][NMeA][X6])) | 2.17 nM
CCCCC[C@@H]1NC(=O)[C@H](Cc2ccc(O)cc2)NC(=O)[C@H](CC(C)C)NC(=O)[C@H](Cc2ccc(O)cc2)NC(=O)[C@H](CCCNC(=N)N)NC(=O)[C@H](Cc2ccccc2)NC(=O)CSC[C@@H](C(=O)NCC(=O)N[C@@H](CCCCN)C(=O)N[C@@H](CCCCN)C(N)=O)NC(=O)[C@H](Cc2ccccc2)N(C)C1=O [compound 56, cyclo(F-R-Y-L-Y-Ahp-NMeF-C2-ClAc)] ({CH2CO}-FRYLY[Ahp(2)][NMeF]CGKK-NH2; thioether N-8) | 534 nM
CCCC[C@@H]1NC(=O)[C@H](CCCCN)NC(=O)[C@H](CCCNC(=N)N)NC(=O)[C@H](Cc2cccc3ccccc23)NC(=O)CSCCNC(=O)[C@H](Cc2ccccc2)N(C)C(=O)[C@H](CCCC)NC(=O)[C@H](Cc2cccc(C(=O)O)c2)NC1=O [compound 197, cyclo(1Nal-R-K-Nle-Phe3COOH-Nle-NMeF-Cysteamine)-ClAc] (cyclo([1Nal]RK[Nle][Phe(3-COOH)][Nle][NMeF][NHCH2CH2SCH2CO])) | 2120 nM
CCCC[C@@H]1NC(=O)[C@H](Cc2ccc(C(F)(F)F)nc2)NC(=O)[C@H](CCCn2ccnc2)N(C)C(=O)[C@H](Cc2ccccc2)OC(=O)C23CC(CNC(=O)[C@H](Cc4ccccc4)N(C)C(=O)[C@H](CCCC)NC(=O)[C@H](Cc4ccccc4F)NC1=O)(C2)C3 (single isomer, unassigned) [compound 218, cyclo(FLac-NMeNvalmid-4CF33Pal-Nle-Phe2F-Nle-NMeF-amBCP)] | 188 nM
CCCC[C@@H]1NC(=O)[C@H](Cc2ccc(OC(F)F)cc2)NC(=O)[C@H](C)N(C)C(=O)[C@H](Cc2ccccc2)OC(=O)C23CC(CNC(=O)[C@H](Cc4ccccc4)N(C)C(=O)[C@H](CCCC)NC(=O)[C@H](Cc4ccccc4F)NC1=O)(C2)C3 [compound 312, cyclo(FLac-NMeA-TyrOCF2-Nle-Phe2F-Nle-NMeF-amBCP)] (cyclo([NMeA]Y(CHF2)[Nle][Phe(2-F)][Nle][NMeF][X1][PhLac])) | 966 nM
CCCC[C@@H]1NC(=O)[C@H](Cc2cccnc2)NC(=O)[C@H](C)N(C)C(=O)[C@H](Cc2cccnc2)NC(=O)C23CC(CNC(=O)[C@H](Cc4cccnc4)N(C)C(=O)[C@H](CCCC)NC(=O)[C@H](Cc4ccccc4F)NC1=O)(C2)C3 [compound 163, cyclo(3Pal-NMeA-3Pal-Nle-Phe2F-Nle-NMe3Pal-amBCP)] (cyclo([3Pal][NMeA][3Pal][Nle][Phe(2-F)][Nle][NMe3Pal][X1])) | 3060 nM
CCCC[C@@H]1NC(=O)[C@H](CCCOC)NC(=O)[C@H](CC2CCC2)NC(=O)[C@H](Cc2cccnc2)NC(=O)[C@H](CCCNC(=N)N)NC(=O)[C@H](Cc2ccccc2)NC(=O)CSC[C@@](C)(C(N)=O)NC(=O)[C@H](Cc2ccccc2)N(C)C1=O [compound 55, cyclo(F-R-3Pal-cBuA-NvaOMe-Nle-NMeF-aMeCl-ClAc)] ({CH2CO}-FR[3Pal][Cba][X41][Nle][NMeF][αMeC]-NH2; thioether N-8) | 4410 nM
C[C@H]1C(=O)N[C@@H](Cc2cncnc2)C(=O)N[C@@H](CCC(C)(F)F)C(=O)N[C@@H](Cc2ccccc2F)C(=O)N[C@@H](CCC(C)(F)F)C(=O)N(C)[C@@H](Cc2ccccc2)C(=O)NCC23CC(C2)(C3)C(=O)O[C@@H](Cc2ccccc2)C(=O)N1C [compound 288, cyclo(FLac-NMeA-PyrimAla-Nle3F2-Phe2F-Nle3F2-NMeF-amBCP)] (cyclo([NMeA][Ala(pyrimidin-5-yl)][Nle(5,5-F2)][Phe(2-F)][Nle(5,5-F2)][NMeF][X1][PhLac])) | 247 nM
CCCCC[C@@H]1NC(=O)[C@H](Cc2ccc(OC)cc2)NC(=O)[C@H](CC2CCC2)NC(=O)[C@H](Cc2ccc(NC(=N)N)cc2)NC(=O)[C@H](CCCNC)N(C)C(=O)[C@H](Cc2ccccc2)NC(=O)CSC[C@@](C)(C(N)=O)NC(=O)[C@H](Cc2ccccc2)N(C)C1=O [compound 385, cyclo(F-NMeOrnMe-Phe4Gn-cBuA-TyrOMe-Ahp-NMeF-aMeCl-ClAc)] ({CH2CO}-F[NMeOrn(Me)][Phe(4-guanidino)][Cba]Y(Me)[Ahp(2)][NMeF][αMeC]-NH2; thioether N-8) | 19.7 nM
CCCC[C@@H]1NC(=O)[C@H](Cc2cccnc2)NC(=O)[C@H](CCN=[N+]=[N-])N(C)C(=O)[C@H](Cc2ccccc2)NC(=O)C23CC(CNC(=O)[C@H](Cc4cccnc4)N(C)C(=O)[C@H](CCCC)NC(=O)[C@H](Cc4ccccc4F)NC1=O)(C2)C3 [compound 245, cyclo(F-NMeDabN3-3Pal-Nle-Phe2F-Nle-NMe3Pal-amBCP)] (cyclo(F[NMeAha][3Pal][Nle][Phe(2-F)][Nle][NMe3Pal][X1])) | 267 nM
CCCC[C@@H]1NC(=O)[C@H](Cc2ccccc2F)NC(=O)[C@H](CC2CCC2)NC(=O)[C@H](CCO)NC(=O)[C@H](CCCNC(=N)N)NC(=O)[C@H](Cc2ccccc2)NC(=O)CSC[C@@](C)(C(N)=O)NC(=O)[C@H](Cc2ccccc2)N(C)C1=O [compound 50, cyclo(F-R-hS-cBuA-Phe2F-Nle-NMeF-aMeCl-ClAc)] ({CH2CO}-FR[hSer][Cba][Phe(2-F)][Nle][NMeF][αMeC]-NH2; thioether N-8) | 503 nM
